Consider 1 compound from patent US12478617B2, “Lipidated peptide inhibitors of interleukin-23 receptor” (JANSSEN BIOTECH, INC., priority 2021, dated 2025).

Molecules are shown by their SMILES. Positions of bridges follow the written chain, without caps; N, C: chain ends. Non-standard residues stand in square brackets, D forms with d. Residues, ends and D or L forms follow the SMILES beside them. *: point of attachment. X1 = O=C(O)CCCCCCCCCCCCCCC(=O)N[C@@H](CCCCN*)C(=O)O; Trp(7-Me) = Cc1cccc2c(C[C@H](N)C(=O)O)c[nH]c12; 2Nal = N[C@@H](Cc1ccc2ccccc2c1)C(=O)O; AEF = NCCOc1ccc(C[C@H](N)C(=O)O)cc1; 3Pal = N[C@@H](Cc1cccnc1)C(=O)O; Pen = CC(C)(S)[C@H](N)C(=O)O; Thp = NC1(C(=O)O)CCOCC1; AEEA = NCCOCCOCC(=O)O; Sar = CNCC(=O)O

For one data set, the target named is T1, IL-23R (Homo sapiens, UniProt Q5VWK5).
T1 construct: HEK293 cells containing IL-23R, IL-12RP31 and a firefly luciferase reporter gene driven by a STAT-inducible promoter (Promega); host or cells: HEK293
T1 sequence (Q5VWK5 24-629): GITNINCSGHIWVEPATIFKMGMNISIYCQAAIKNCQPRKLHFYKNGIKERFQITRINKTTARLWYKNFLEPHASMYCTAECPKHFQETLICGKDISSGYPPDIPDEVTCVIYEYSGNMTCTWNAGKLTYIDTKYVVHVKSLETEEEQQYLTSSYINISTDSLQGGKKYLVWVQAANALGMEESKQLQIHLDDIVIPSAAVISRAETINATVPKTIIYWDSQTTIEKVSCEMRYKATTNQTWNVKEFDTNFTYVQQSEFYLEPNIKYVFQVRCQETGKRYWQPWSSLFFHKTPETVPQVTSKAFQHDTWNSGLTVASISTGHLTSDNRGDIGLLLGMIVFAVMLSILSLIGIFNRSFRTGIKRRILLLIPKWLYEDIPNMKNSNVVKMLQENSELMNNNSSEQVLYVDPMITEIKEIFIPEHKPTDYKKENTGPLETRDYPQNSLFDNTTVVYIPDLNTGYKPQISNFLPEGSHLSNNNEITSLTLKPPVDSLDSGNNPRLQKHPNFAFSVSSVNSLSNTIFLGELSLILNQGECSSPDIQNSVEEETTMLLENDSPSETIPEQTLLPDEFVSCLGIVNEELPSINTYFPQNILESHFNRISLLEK
The experiment in a line: IL23R Reporter Assay. In kind it is cell-based. The gist of the method:
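Reporter cells read out IL-23-driven STAT3 activation; compounds were serially diluted in DMSO. After 5 h at 37 °C, 5% CO2, cells were brought to 20 °C and luminescence was measured with BioGlo reagent.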
(In general: Reporter assays use an easily measured gene product as a stand-in for the process of interest.)

The conditions of data set [1]: from Ac-Pen-Asn-Thr-7MeTrp-Lys(Ac)-Pen-AEF-2Nal-THP-Lys(Ac)-Asn-3Pya-Sar-PEG2-PEG2-eLys(C16OH)-OH; disulfide bond; 20-membered ring; I2/AcOH; ACN/H2O; […].
Data set [2] addresses T2, peripheral blood mononuclear cells (PBMCs) (Homo sapiens, UniProt Q5VWK5).
T2 sequence (Q5VWK5 24-629): T1 sequence (Q5VWK5 24-629)
The experiment in a line: PBMC pSTAT3 assay. The conditions noted are these: PBMCs from healthy donors, anti-CD3/IL-1β cultured; peptide 30 min, then IL-23 5 ng/mL for 30 min; phosphorylated STAT3 (Meso Scale Discovery). In kind it is cell-based. The text has this: IL-23 binding to IL-23 receptors results in the activation of the Signal Transducer and Activator of Transcription 3 (STAT3) by phosphorylation and downstream signaling events. Accordingly. the ability of the inhibitors described herein to block IL-23 action can be assessed by monitoring the status of STAT3 activation in response to IL-23. This may be accomplished in reporter cell assays or in intact cells such as peripheral blood mononuclear cells (PBMCs).

In general, IC50 refers to the concentration that inhibits the measured activity by half. The low end stands for greater potency in that assay, the high end for weaker potency in that assay.

As for `CC(=O)NCCCC[C@@H]1NC(=O)[C@H](Cc2c[nH]c3c(C)cccc23)NC(=O)[C@H]([C@@H](C)O)NC(=O)[C@H](CC(N)=O)NC(=O)[C@@H](NC(C)=O)C(C)(C)SSC(C)(C)[C@@H](C(=O)N[C@@H](Cc2ccc(OCCN)cc2)C(=O)N[C@@H](Cc2ccc3ccccc3c2)C(=O)NC2(C(=O)N[C@@H](CCCCNC(C)=O)C(=O)N[C@@H](CC(N)=O)C(=O)N[C@@H](Cc3cccnc3)C(=O)N(C)CC(=O)NCCOCCOCC(=O)NCCOCCOCC(=O)NCCCC[C@H](NC(=O)CCCCCCCCCCCCCCC(=O)O)C(=O)O)CCOCC2)NC1=O` [Example 8, MeCO-Pen*-N-T-7MeW-K(Ac)-Pen*-AEF-2Nal-THP—K(Ac)-N— 3Pva-Sar-PEG2-PEG2-eK(C160H)-COOH (*Pen-Pen form disulfide bond)] (Ac-[Pen]NT[Trp(7-Me)]K(Ac)[Pen][AEF][2Nal][Thp]K(Ac)N[3Pal][Sar][AEEA][AEEA]-X1; disulfide 1-6), the results for the IC50 (against IL-23R; in data set [2]) were 89 pM and 210 pM, respectively. In data set [1], this compound came in with a ring closure, yield after HPLC of 7%.
